Data on one substance can be found in patent US9156881B2, “Tripeptide KDPT for antiapoptotic treatment” (WESTFAELISCHE WILHELMS-UNIVERSITAET MUENSTER, priority 2011, dated 2015).

For test [1], the system named is caco-2 cells (human intestinal epithelial cells). The experiment in a line: M30-ApoptosisSense ELISA (cytokeratin 18) apoptosis rate in intestinal epithelial cells. Type of test: cell-based. The following applies: p<0.05, FIG. 1. As to the method:
The apoptosis rate in epithelial cells was measured by the M30-ApoptosisSense ELISA
(PEVIVA, Bromma, Sweden), detecting cytokeratin 18 with a specific monoclonal M30 antibody, whereas before cytokeratin 18 was cleaved by the enzyme caspase. The caco-2 cells (human intestinal epithelial cells) grew semiconfluent in cell culture flasks, before plating them on a 6 well plate. One plate was stimulated with 10^−5 and 10^−6 M KdPT solved in routine medium (SFM, white column), the control plate was stimulated with the routine-medium alone.

Test [2] concerns human dermal microvascular endothelial cells (HMEC). Briefly: M30-ApoptosisSense ELISA (cytokeratin 18) apoptosis rate in HMEC. Type of test: cell-based. The method, then:
To further elucidate the impact of KdPT administration on apoptosis in a different human cell line, additional experiments were performed in human dermal microvascular endothelial cells (HMEC) which are endothelial cells. The apoptosis rate in epithelial cells was measured by the M30-ApoptosisSense ELISA (PEVIVA, Bromma, Sweden), detecting cytokeratin 18 with a specific monoclonal M30 antibody, whereas before cytokeratin 18 was cleaved by the enzyme caspase. The HMEC cells grew semiconfluent in cell culture flasks, before plating them on a 6 well plate. One plate was stimulated with 10-5 and 10-6 M KdPT solved in routine medium (SFM, white column), the control plate was stimulated with the routine-medium alone.

The subject of another test is murine DSS colitis. Briefly: Epithelial apoptosis rate in murine DSS-colitis (anti-active Caspase 3 staining of colon sections). Type of test: in vivo. The following applies: DSS-treated WT mice, KdPT 10 μg/day/animal i.p. daily, vs PBS control, P<0.05. As to the method:
To further evaluate the impact of KdPT on the epithelial apoptosis rate in vivo, the murine DSS colitis was performed. Dextran sodium sulfate (DSS)-induced colitis was accomplished as described in Bettenworth Am J Pathol 2011. WT mice were given 3% DSS (ICN Biomedicals Inc., Eschwege, Germany) in drinking water for 5 days, and disease activity was monitored daily by body weight measurement. Afterwards, the mice received regular drinking water again to monitor the improvement in inflammation. PBS-diluted KdPT (10 μg/day/animal; Bachem Americas Inc., Torrance, Calif.) was given daily by intraperitoneal (i.p.). injection until the end of the experiment. Control mice received PBS only.
At the end of the experiment, the mice were sacrificed and the colons removed. The colons were opened, embedded in Tissue-Tek O.C.T. (Sukura Finetek Europe, Zoeterwoude, The Netherlands), and kept frozen at −80° C. until further use. […] Immunhistological stainings were analyzed by two blinded investigators.
To assess apoptosis rate, the number of anti-active Caspase 3 positive cells per total crypt epithelial cells was counted. The number of anti-active Caspase 3 positive cells in colonic tissue was assessed as a […], determined after KdPT administration in DSS-treated mice.

For the next test, the system named is experimental colitis. The following applies: both colitis models (DSS, IL-10 gene-deficient mice); cited from earlier work.
The next test deals with colonic epithelial cells. The following applies: cited from earlier work.
The subject of a further test is melanogenesis. The following applies: in vitro; cited from earlier work.
A further test deals with human sebocytes. The following applies: cited from earlier work.

Turning to (I)Lys-(d)Pro-(I)Thr [KdPT], the “apoptosis rate on costimulation with KdPT (in words)” value in test [1] is given as “significant reduction of the apoptosis rate”; in test [2] (HMEC, FIG. 2), “significant reduction of the apoptosis rate”. In test [2] (HMEC costimulated with KdPT, 24 h incubation, control 1150.5 U/I), the “apoptosis rate (M30 ELISA, cytokeratin 18)” value is given as 965.9 U/I. In addition, the “reduction of apoptosis rate” value in test [2] (HMEC, 10-5 and 10-6 M KdPT, 24 h incubation, vs control plate, p=0.002) is recorded as 19.2%. Further, the “number of anti-active Caspase 3 positive cells per total crypt epithelial cells” value with murine DSS colitis is on record as “dramatically decreased”. Moreover, the severity of inflammation result in the test on experimental colitis is on record as “markedly reduced severity of inflammation”. In addition, the transepithelial electrical resistance entry in the test with colonic epithelial cells (after stimulation with interferon-γ/tumor necrosis factor-α) is “improved transepithelial electrical resistance”. For the same substance, in the test with colonic epithelial cells (colonic epithelial cells), the closure of wounds result is on record as “accelerated closure of wounds”. Besides, the proliferation entry with colonic epithelial cells (colonic epithelial cells) is on record as “increased proliferation”. Further, in the test on melanogenesis, the melanogenesis result is recorded as “did not affect melanogenesis”. Further, the “IL-1(beta)-mediated cytokine expression and signaling” value with human sebocytes is “suppresses”.
